Experimental data: patent US20040097464A1, “Mixture of non-sulfated fucose-based oligosaccharides, a cosmetic or pharmaceutical composition comprising said mixture and its use in cosmetics or pharmacy” (priority 2000, published 2004)

Tests used:
Type in all cases: cell-based, human
MMP-9 [1] = assay: MMP activity of skin explants stimulated with hyaluronane (gelatin zymography), MMP-9; settings: skin explants stimulated with 1 mg/ml of hyaluronane, 10 μg/ml
Description: (§1) Skin explants from a skin of the belly of a person were cultivated in a DMEM medium without phenol red (GIBCO) under stirring at 37° C. for 48 hours with different treatments. The samples were treated with a concentration of 10 μg/ml.
(§2) Gelatin, substrate of the MMP-s, was co-polymerized at final 1 mg/ml with a gel of polyacrylamide at 10%. The extracellular media from the cultures of skin explant were deposited on the top of the gel, the electrophoresis was carried out at 150 volts. The gels were then incubated in MMP buffer for 24 hours under stirring at 37° C. The gels were then colored with Coomassie blue, then uncolored with distilled water. The lise ranges corresponding to an MMP activity, appeared as white, while the background of the gel was blue. In function of the distance of migration of proteins, one could determine the molecular weights of the enzymes having digested the gelatin. The MMP activity was quantified by morphometric analysis with the aid of a Visiolab computer. […]
(§3) The protocol of the studies was the same as that used for the study of the MMP activity of the non-stimulated skin explants, but with hyaluronane with a concentration of […] and the samples of oligosaccharides with a concentration of 10 μg/ml, added in the culture medium.

MMP-2 [2] = assay: MMP activity of non-stimulated skin explants (gelatin zymography), MMP-2; settings: 10 μg/ml, 48 hours
Description: as §1
(§4) Extracellular medium-1 ml of medium
(§5) Intracellular medium-explant ground with ultraturax in 1 ml of MMP buffer
(§6) 0.1 M Tris-HCl, pH 7.5, 0.1 M NaCl, 10 mM CaCl2, 1 mM zinc acetate
(§7) Gelatin, substrate of the MMP-s, was co-polymerized at final 1 mg/ml with a gel of polyacrylamide at 10%. The extracellular media from the cultures of skin explant were deposited on the top of the gel, the electrophoresis was carried out at 150 volts. The gels were then incubated in MMP buffer for 24 hours under stirring at 37° C. The gels were then colored with Coomassie blue, then uncolored with distilled water. The lise ranges corresponding to an MMP activity, appeared as white, while the background of the gel was blue. In function of the distance of migration of proteins, one could determine the molecular weights of the enzymes having digested the gelatin. The MMP activity was quantified by morphometric analysis with the aid of a Visiolab computer.

MMP-2 [3] = assay: MMP activity of skin fibroblasts stimulated with 1 mg/ml hyaluronane (zymography), expression of MMP-2; settings: 1 mg/ml of hyaluronane, 10 μg/ml, 24 hours (section b.2 fibroblasts; title says skin explants not stimulated)
From the text: (§8) Skin fibroblast from a skin of the belly of a person were cultivated until the 7th cellular passage in a DMEM Glutamax (GIBCO) medium containing 1% of antibiotics and of fungicide and 10% of fetal calf serum and were used for the experiment. The fibroblasts were inseminated on 6-well plates at a density of 5.10^4 cells per well. When at the confluence, the culture medium was replaced by a DMEM medium, without phenol red containing 0.1% of BSA and containing the different substances to be treated at a concentration of 10 μg/ml. After 24 hours of culture at 37° C. (5% (v/v) CO2, 95% (v/v) air) the samples were recovered.
(§9) As in the case of the cultures of skin explants, the culture media of the fibroblasts were studied with zymography.
a.2.2) MMP Activity of the Fibroblasts of Skin Stimulated with 1 mg/ml of Hyaluronane
The protocol of the studies is the same as that used for the study of the MMP activity of the non-stimulated fibroblasts of skin, but with hyaluronane with a concentration of 1 mg/ml and the samples of oligosaccharides with a concentration of 10 μg/ml, added in the culture medium.
(§10) When the fibroblasts are cultivated in monolayer, only the widely secreted MMP-2 is visible with a very low quantity of MMP-9, however, present.

MMP-9 [4] = assay: MMP activity of non-stimulated skin explants (gelatin zymography), MMP-9; settings: 10 μg/ml, 48 hours
Description: as §1, §4, §5, §6, §7

MMP-2 [5] = assay: MMP activity of skin explants stimulated with hyaluronane (gelatin zymography), MMP-2; settings: skin explants stimulated with 1 mg/ml of hyaluronane, 10 μg/ml
Description: as §1, §2, §3

MMP-2 [6] = assay: MMP activity of non-stimulated skin fibroblasts in monolayer (zymography), expression of MMP-2; settings: 10 μg/ml, 24 hours (section b.2 fibroblasts; title says skin explants)
From the text: as §8
Extracellular medium−1 ml of medium+2 rinsings with 0.25 ml of PBS
Intracellular medium−cellular carpet sonicated with 1 ml of MMP buffer
MMP Buffer composition 0.1 M Tris-HCl, pH 7.5, 0.1 M NaCl, 10 mM CaCl2, 1 mM zinc acetate
as §9, §10

For `C[C@H](O)[C@@H](O)[C@@H](O)[C@H](O)C=O` [Fucose, fucose], the “Active/Inactive MMP-9 (active form/inactive form relationship of the enzyme)” value (MMP-9 [1]) was 3.54, the “% effectiveness: reduction of active/inactive relationship of MMP-9” value (MMP-9 [1]; vs control) was 50% and the “Active/Inactive MMP-2 (active form/inactive form relationship of the enzyme)” value (MMP-2 [2]) was 0.80. For the same compound, the “% of effectiveness: reduction of active/inactive relationship of MMP-2” value (MMP-2 [2]; vs control) was 6%, the “% effectiveness: reduction of the expression of MMP-2 with respect to the control” value (MMP-2 [3]) was 11% and the “Active/Inactive MMP-9 (active form/inactive form relationship of the enzyme)” value (MMP-9 [4]) was 2.38. The “% effectiveness: reduction of active/inactive relationship of MMP-9” value (MMP-9 [4]; vs control) was 57%, the “Active/Inactive MMP-2 (active form/inactive form relationship of the enzyme)” value (MMP-2 [5]) was 1.65 and the “% effectiveness: reduction of active/inactive relationship of MMP-2” value (MMP-2 [5]; vs control) was “Ns”. The “% of effectiveness: reduction of the expression of MMP-2” value (MMP-2 [6]) was 6%.
